Measured values from ChEMBL document CHEMBL1154360, “Cytotoxic and PTP1B inhibitory activities from Erythrina abyssinica” (Bioorg Med Chem Lett, 2009).
pIC50: −log10 of the molar value. Each block holds one compound with its values, some of them ahead of it.

Legend:
MCF7 [1] = assay: Cytotoxicity against human MCF7 cells by WST-1 assay; type: functional, cell-based
[2] = molecular target: T1, Tyrosine-protein phosphatase non-receptor type 1 (Homo sapiens, UniProt P18031); assay: Inhibition of human recombinant PTP1B assessed as p-nitrophenol production
T1 sequence (P18031 whole entry): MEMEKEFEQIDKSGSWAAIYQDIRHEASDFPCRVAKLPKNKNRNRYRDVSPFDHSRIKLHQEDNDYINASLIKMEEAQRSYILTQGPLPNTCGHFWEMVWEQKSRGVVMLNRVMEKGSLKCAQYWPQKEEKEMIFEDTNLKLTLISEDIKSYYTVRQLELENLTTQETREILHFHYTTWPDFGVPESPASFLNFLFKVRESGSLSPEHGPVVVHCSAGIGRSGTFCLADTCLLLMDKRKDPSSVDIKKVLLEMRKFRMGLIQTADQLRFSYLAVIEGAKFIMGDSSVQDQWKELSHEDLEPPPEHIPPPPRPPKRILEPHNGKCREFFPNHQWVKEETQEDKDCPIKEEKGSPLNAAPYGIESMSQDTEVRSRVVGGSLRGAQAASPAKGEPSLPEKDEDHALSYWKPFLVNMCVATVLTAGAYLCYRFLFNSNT

MCF7 [3] = assay: Cytotoxicity against human tamoxifen-resistant MCF7 cells by WST-1 assay; type: functional, cell-based
MDA-MB-231 = assay: Cytotoxicity against human MDA-MB-231 cells by WST-1 assay; type: functional, cell-based
MCF7 [4] = assay: Cytotoxicity against human adriamycin- resistant MCF7 cells by WST-1 assay; type: functional, cell-based

pIC50 [2]: 4.71
SMILES: CC(C)=CCc1c(O)ccc2c1OC[C@H]1c3ccc(O)cc3O[C@@H]21
pIC50 (MCF7 [1]): < 4.52
pIC50 (MCF7 [3]): < 4.52
pIC50 (MDA-MB-231): < 4.52
pIC50 (MCF7 [4]): < 4.52

SMILES: CCCCCCCCCCCCCCCC(=O)C1=C(O)[C@@H](CO)OC1=O
pIC50 (MCF7 [1]): < 4.52
pIC50 (MCF7 [3]): < 4.52
pIC50 (MDA-MB-231): < 4.52
pIC50 (MCF7 [4]): < 4.52

pIC50 [2]: < 4.52
SMILES: CC(C)=CCc1cc2c(cc1O)OC[C@H]1c3ccc(O)c(CC=C(C)C)c3O[C@@H]21 [ERYBRAEDIN C]
pIC50 (MCF7 [1]): < 4.52
pIC50 (MCF7 [3]): < 4.52
pIC50 (MDA-MB-231): < 4.52
pIC50 (MCF7 [4]): < 4.52

pIC50 [2]: 5.38
SMILES: CC(C)=CCc1c(O)ccc2c1OC[C@H]1c3ccc4c(c3O[C@@H]21)C=CC(C)(C)O4 [ERYBREADIN B]
pIC50 (MCF7 [1]): 4.93
pIC50 (MCF7 [3]): 5.21
pIC50 (MDA-MB-231): 5.11
pIC50 (MCF7 [4]): 5.25

pIC50 [2]: 5.14
SMILES: CC(C)=CCc1cc2c(cc1O)O[C@H]1c3ccc(O)c(CC=C(C)C)c3OC[C@@H]21 [ERYBREADIN C]
pIC50 (MCF7 [1]): 4.83
pIC50 (MCF7 [3]): 5.04
pIC50 (MDA-MB-231): 4.64
pIC50 (MCF7 [4]): 4.70

pIC50 [2]: 5.19
SMILES: CC(C)=CCc1c(O)ccc2c1OC[C@H]1c3ccc4c(c3O[C@@H]21)OC(C)(C)C=C4 [ERYBREADIN D]
pIC50 (MCF7 [3]): 5.11
pIC50 (MCF7 [4]): 4.90

pIC50 [2]: 4.68
SMILES: COc1ccc2c(c1CC=C(C)C)O[C@H]1c3cc(CC=C(C)C)c(O)cc3OC[C@@]21O [ERYSTAGALLIN A]
pIC50 (MCF7 [1]): < 4.52
pIC50 (MCF7 [3]): < 4.52
pIC50 (MDA-MB-231): < 4.52
pIC50 (MCF7 [4]): < 4.52

pIC50 [2]: 5.06
SMILES: CC(C)=CCc1cc2c(cc1O)OC[C@@]1(O)c3ccc4c(c3O[C@@H]21)C=CC(C)(C)O4 [ERYSUBIN E]
pIC50 (MCF7 [1]): < 4.52
pIC50 (MCF7 [3]): < 4.52
pIC50 (MDA-MB-231): < 4.52
pIC50 (MCF7 [4]): < 4.52

pIC50 [2]: 4.71
SMILES: COc1ccc2c(c1CC=C(C)C)O[C@H]1c3ccc(O)cc3OC[C@@]21OC [ERYTHRIBYSSIN A]
pIC50 (MCF7 [1]): 4.71
pIC50 (MCF7 [3]): 4.92
pIC50 (MDA-MB-231): 4.55
pIC50 (MCF7 [4]): 4.79

pIC50 [2]: < 4.52
SMILES: O=Cc1c(O)ccc2c1O[C@H]1c3ccc(O)cc3OC[C@@H]21 [ERYTHRIBYSSIN B]
pIC50 (MCF7 [1]): < 4.52
pIC50 (MCF7 [3]): < 4.52
pIC50 (MDA-MB-231): < 4.52
pIC50 (MCF7 [4]): < 4.52

pIC50 [2]: < 4.52
SMILES: COc1cc2c(cc1O)O[C@H]1c3cc(CC=C(C)C)c(OC)cc3OC[C@@H]21 [ERYTHRIBYSSIN C]
pIC50 (MCF7 [1]): < 4.52
pIC50 (MCF7 [3]): < 4.52
pIC50 (MDA-MB-231): < 4.52
pIC50 (MCF7 [4]): < 4.52

pIC50 [2]: < 4.52
SMILES: COc1cc2c(cc1O)O[C@H]1c3cc(CC=C(C)C)c(O)cc3OC[C@@H]21 [ERYVARIN K]
pIC50 (MCF7 [1]): < 4.52
pIC50 (MCF7 [3]): < 4.52
pIC50 (MDA-MB-231): < 4.52
pIC50 (MCF7 [4]): < 4.52

pIC50 [2]: 5.11
SMILES: CC(C)=CCc1cc2c(cc1O)OC[C@H]1c3ccc4c(c3O[C@@H]21)C=CC(C)(C)O4 [FOLITENOL]
pIC50 (MCF7 [3]): 4.73
pIC50 (MDA-MB-231): 4.78
pIC50 (MCF7 [4]): 4.97

pIC50 [2]: 5.12
SMILES: CC1(C)C=Cc2cc3c(cc2O1)OC[C@H]1c2ccc(O)cc2O[C@@H]31 [NEORAUTENOL]
pIC50 (MCF7 [1]): < 4.52
pIC50 (MCF7 [3]): < 4.52
pIC50 (MDA-MB-231): < 4.52
pIC50 (MCF7 [4]): < 4.52

pIC50 [2]: < 4.52
SMILES: CC(C)=CCc1c(O)ccc2c1O[C@H]1c3ccc(O)cc3OC[C@@H]21 [PHASEOLLIDIN]
pIC50 (MCF7 [1]): < 4.52
pIC50 (MCF7 [3]): < 4.52
pIC50 (MDA-MB-231): < 4.52
pIC50 (MCF7 [4]): < 4.52

pIC50 [2]: < 4.52
SMILES: CC(C)=CCc1cc2c(cc1O)O[C@H]1c3ccc(O)cc3OC[C@@H]21 [SOPHORAPTEROCARPAN A]
pIC50 (MCF7 [1]): < 4.52
pIC50 (MCF7 [3]): < 4.52
pIC50 (MDA-MB-231): < 4.52
pIC50 (MCF7 [4]): < 4.52

SMILES: CC/C(=C(\c1ccccc1)c1ccc(OCCN(C)C)cc1)c1ccccc1 [TAMOXIFEN]
pIC50 (MCF7 [1]): 4.94

SMILES: C[C@H]1[C@H](C)CC[C@]2(C(=O)O)CC[C@]3(C)C(=CC[C@@H]4[C@@]5(C)CC[C@H](O)C(C)(C)[C@@H]5CC[C@]43C)[C@H]12 [URSOLIC ACID]
pIC50 (MCF7 [1]): < 4.52
pIC50 (MCF7 [3]): < 4.52
pIC50 (MDA-MB-231): < 4.52
pIC50 (MCF7 [4]): < 4.52
